The text below walks through data of patent US6770587B1, “Chain extended functionalized initiators and methods of preparing and using the same” (FMC Corporation, priority 2000, dated 2004).

The nature of data set [1]: Solubility of initiator in cyclohexane with isoprene added as chain extension agent. The data set is classed as physicochemical. The note with it: for solubility, Moles Active/Kg. / solubility, Moles Active/Liter: cyclohexane. Here is the method: For example, the solubility of 3-(1,1-dimethylethoxy)-1-propyllithium was investigated in cyclohexane at 0° C., with various amounts of isoprene added as a chain extension agent. The solubility data is collected in the table below:
A similar impact on the solubility of 3-(hexamethyleneimino)-1-propyllithium in cyclohexane was obtained with the addition of limited amounts of isoprene.
A one-liter three-necked Morton flask was equipped with a mechanical stirrer, Claisen adapter with an ice condenser and gas inlet, and a 250 milliliter pressure-equalizing dropping funnel. This apparatus was dried in an oven overnight at 125° C., assembled hot, and allowed to cool to room temperature in a stream of argon. Lithium metal dispersion was washed free of mineral oil with hexane (2×100 ml) and pentane (1×100 ml). The resultant lithium dispersion was dried in a stream of argon, weighed (13.90 grams, 2.00 moles, 2.80 equivalents), and transferred to the reaction flask with 400 ml of cyclohexane. The mechanical stirrer was set at an agitation rate of 500 RPMs, and the reaction mixture was heated to 80° C. with a heating mantle. The heat source was removed. The dropping funnel was charged with 107.82 grams (0.72 moles, 1.00 equivalent) of the precursor. The precursor was added dropwise, at an approximate rate of 0.71 ml/min. The reaction temperature was maintained at 70° C. with a dry ice/hexane bath. The total halide feed time was 162 minutes. The reaction mixture was allowed to stir for one hour post-feed, and maintained at a temperature of 70° C. with a heating mantle. Then isoprene, 98.20 grams ([…], […] of isoprene) was added at a feed rate of approximately 2.55 ml/min. The temperature was maintained at 62.5° C. during and after the feed. The reaction stirred for two hours before it was cooled to room temperature and filtered through a medium porosity pressure filter. The lithium muds were washed with cyclohexane (1×50 ml). The filtration took 15 minutes. This afforded a dark yellow solution, 647.08 grams, 850 ml. The sample was stored in 0° C. refrigerator. This solution was transferred to a dry, 1000 ml pear shaped flask. A majority of the solvent was removed on the rotary evaporator, at full vacuum, with a bath temperature of 30° C. This afforded a mobile, yellow oil, yield=307.92 g, 475 ml.

The conditions of data set [2]: non-chain extended initiator, cyclohexane (background statement); cited from earlier work.
Data set [3] can be described thus: Storage of initiator solutions, observation of precipitate or crystals. The data set is classed as physicochemical. Here is the method:
The sample bottle was placed in a refrigerator at −1° C. for twenty-four hours.
The sample bottle was placed in a refrigerator at −1° C. for twenty-four hours. […] This solution was transferred to a dry, one-liter pear shaped flask. A majority of the solvent was removed on the rotary evaporator, at full vacuum, with a bath temperature of 40° C. This afforded a dark amber oil, yield=154.85 grams.
The sample bottle was placed in a refrigerator at −1° C. for twenty-four hours. […] This solution was transferred to a dry, one liter pear shaped flask. A majority of the solvent was removed on the rotary evaporator, at full vacuum, with a bath temperature of 40° C. This afforded a dark amber oil, yield=230.07 grams.
The sample bottle was placed in a refrigerator at −2° C. for forty-eight hours.
This solution was transferred to a dry, 500 ml., pear shaped flask. A majority of the solvent was removed on the rotary evaporator, at full vacuum, with a bath temperature of 40° C. This afforded a dark amber oil, yield=104.90 grams. Heptane, 6.11 grams, was added as a freezing point depressant.
A one-liter three-necked Morton flask was equipped with a mechanical stirrer, Claisen adapter with an ice condenser and gas inlet, and a 250 milliliter pressure-equalizing dropping funnel. This apparatus was dried in an oven overnight at 125° C., assembled hot, and allowed to cool to room temperature in a stream of argon. Lithium metal dispersion was washed free of mineral oil with hexane (2×100 ml), and pentane (1×100 ml). The resultant lithium dispersion was dried in a stream of argon, weighed (12.22 grams, 1.76 moles, 2.80 equivalents), and transferred to the reaction flask with 550 ml of cyclohexane. The mechanical stirrer was set at an agitation rate of 500 RPMs, and the reaction mixture was heated to 80° C. with a hearing mantle. The heat source was removed. The dropping funnel was charged with 94.90 grams (0.63 moles, 1.00 equivalent) of the precursor. The precursor was added dropwise, at an approximate rate of 1.59 ml/min. The reaction temperature was maintained at 70° C. with a dry ice/hexane bath. The total halide feed time was 66 minutes. The reaction mixture was allowed to stir for one hour post-feed and maintained at a temperature of 67.5° C. with a heating mantle. Then isoprene, 22.89 grams ([…], 0.50 equivalents of isoprene) was added at a feed rate of approximately 1.58 ml/min. The temperature was maintained at 62.5° C. during and after the feed. The reaction stirred for two hours before it was cooled to room temperature and filtered through a medium porosity pressure filter. The lithium muds were washed with cyclohexane (2×70 ml). The filtration took 15 minutes. This afforded a clear, light yellow solution, 513.07 g, 650 ml. The sample was stored in 0° C. refrigerator. This solution was transferred to a dry, 1000 ml pear-shaped flask. Some solvent was removed on the rotary evaporator, at full vacuum, with a bath temperature of 30° C. This afforded a light yellow solution, yield=386.01 g, 550 ml.
A one-liter three-necked Morton flask was equipped with a mechanical stirrer, Claisen adapter with an ice condenser and gas inlet, and a 250 milliliter pressure-equalizing dropping funnel. This apparatus was dried in an oven overnight at 125° C., assembled hot, and allowed to cool to room temperature in a stream of argon. Lithium metal dispersion was washed free of mineral oil with hexane (2×100 ml) and pentane (1×100 ml). The resultant lithium dispersion was dried in a stream of argon, weighed (13.90 grams, 2.00 moles, 2.80 equivalents), and transferred to the reaction flask with 400 ml of cyclohexane. The mechanical stirrer was set at an agitation rate of 500 RPMs, and the reaction mixture was heated to 80° C. with a heating mantle. The heat source was removed. The dropping funnel was charged with 107.82 grams (0.72 moles, 1.00 equivalent) of the precursor. The precursor was added dropwise, at an approximate rate of 0.71 ml/min. […]

Setting [4] is: 0° C., 0.00 isoprene equivalents.
The mark [5] stands for this setting: 0° C., 0.50 isoprene equivalents.
Where [6] appears, read: 0° C., 0.75 isoprene equivalents.
[7] abbreviates: 0° C., 1.00 isoprene equivalents.
Setting [8] is: 0° C., 2.00 isoprene equivalents.

Regarding `[Li][CH2]C(C)(C)CO[Si](C)(C)C` [2,2-dimethyl-3-trimethylsilyloxy-1-propyllithium], the “effect of chain extension on solubility” value in data set [1] (addition of less than one equivalent of the chain extension agent) was “increased the solubility”.
As for `[Li][CH2]CCOC(C)(C)C` [3-(1,1-dimethylethoxy)-1-propyllithium], the “solubility, Moles Active/Kg.” value in data set [1] (setting [4]) was determined as 0.36 Moles Active/Kg; in data set [1] (setting [5]), 1.35 Moles Active/Kg; in data set [1] (setting [6]), 1.72 Moles Active/Kg; in data set [1] (setting [7]), 1.84 Moles Active/Kg; in data set [1] (setting [8]), 1.90 Moles Active/Kg. Besides, the “solubility, Moles Active/Liter” value in data set [1] (setting [4]) amounted to 0.30 Moles Active/Liter; in data set [1] (setting [5]), 1.06 Moles Active/Liter; in data set [1] (setting [6]), 1.33 Moles Active/Liter; in data set [1] (setting [7]), 1.42 Moles Active/Liter; in data set [1] (setting [8]) it was 1.46 Moles Active/Liter.
Consider `[Li][CH2]CCOC(C)(C)CC` [3-(1,1-dimethylpropyloxy)-1-propyllithium], for which, in data set [2], the “maximum solubility in cyclohexane” value is 0.30 Molar.
In the case of `[Li][CH2]CCN1CCCCCC1` [3-(hexamethyleneimino)-1-propyllithium], the “maximum solubility in cyclohexane” value in data set [2] is on record as 0.30 Molar. The “solubility, Moles Active/Kg.” value in data set [1] (0.00 isoprene equivalents) is recorded as 0.20 Moles Active/Kg; in data set [1] (0.13 isoprene equivalents), 0.64 Moles Active/Kg; in data set [1] (0.51 isoprene equivalents), 2.08 Moles Active/Kg; in data set [1] (0.90 isoprene equivalents), 2.43 Moles Active/Kg; in data set [1] (2.00 isoprene equivalents), 2.75 Moles Active/Kg. The “solubility, Moles Active/Liter” value amounted to 0.16 Moles Active/Liter in data set [1] (0.00 isoprene equivalents); 0.51 Moles Active/Liter in data set [1] (0.13 isoprene equivalents); 1.62 Moles Active/Liter in data set [1] (0.51 isoprene equivalents); 2.01 Moles Active/Liter in data set [1] (0.90 isoprene equivalents); 2.28 Moles Active/Liter in data set [1] (2.00 isoprene equivalents). For the same molecule, in data set [3] (cyclohexane solution, 6.707 wt. % (0.4556 moles/kg), overnight at −5° C.), the precipitation on storage entry was “heavy white precipitate”.
`[Li][CH2]CCN1CCCC1` [3-(pyrrolidino)-1-propyllithium]: in data set [3] (cyclohexane solution before chain extension, 14.63 wt. % (1.228 moles/kg), overnight at 20° C.), the precipitation on storage result was “heavy white precipitate had formed”.
Consider `[Li][CH2]CCN1CCCCCC1` [Example 1, 3-(Hexamethyleneimino)-1-Propyllithium], for which the precipitation on storage entry in data set [3] (cyclohexane solution as obtained, refrigerator at −1° C. for twenty-four hours) was “No solids had precipitated”; in data set [3] (cyclohexane solution as obtained, storage overnight at 15° C.), “no solids had precipitated”.
For `[Li][CH2]CCN1CCCCCC1` [Example 2, 3-(Hexamethyleneimino)-1-Propyllithium], the precipitation on storage result in data set [3] (concentrated solution, 30.65 wt. % (2.083 moles/kg), −1° C. for one week) is on record as “no precipitate was observed”.
As to `[Li][CH2]CCN1CCCCCC1` [Example 3, 3-(Hexamethyleneimino)-1-Propyllithium], in data set [3] (concentrated solution, 35.74 wt. % (2.428 moles/kg), −1° C. for ten days), the precipitation on storage result is “no precipitate was observed”.
As to `[Li][CH2]CCN1CCCC1` [Example 4, 3-(Pyrrolidino)-1-Propyllithium], the precipitation on storage result in data set [3] (cyclohexane solution diluted with heptane, 9.53 wt. %, −2° C. for forty-eight hours) was “No solids had precipitated”.
On to `[Li][CH2]CCN1CCCC1` [Example 5, 3-(Pyrrolidino)-1-Propyllithium], for which the precipitation on storage result is recorded as “no solids had precipitated” in data set [3] (concentrated solution with heptane, 24.14 wt %, −2° C. for four days) and “no solids had precipitated” in data set [3] (cyclohexane solution, 14.02 wt. %, overnight at −2° C.).
Regarding `[Li][CH2]CCOC(C)(C)C` [Example 7, 3-(1,1-Dimethylethoxy)-1-propyllithium], the crystals on storage result in data set [3] (cyclohexane solution, 0° C. refrigerator, after one day) was “Crystals were present”.
As to `[Li][CH2]CCOC(C)(C)C` [Example 10, 3-(1,1-Dimethylethoxy)-1-propyllithium], the crystals on storage result in data set [3] (concentrated cyclohexane solution, 49.4 wt. % (1.91 mole/kg), storage in 0° C. refrigerator, maximum solubility) is “crystals were present”.
